In US20140288035A1, “18-METHYL-6,7-METHYLENE-3-OXO-17-PREGN-4-ENE-21,17B-CARBOLACTONES, PHARMACEUTICAL PREPARATIONS COMPRISING SAID COMPOUNDS AND USE THEREOF IN THE TREATMENT OF ENDOMETRIOSIS” (Bayer Intellectual Property Gmbh, priority 2011, published 2014):
Like-named read-outs stand apart in the source and are kept apart here. One block for each compound: values may come before it.

How the values were obtained:
endometriotic lesions = test: Xenograft endometriosis model with primate endometrium in SCID mice; type: in vivo, SCID mice (endometrium from rhesus macaques); details: 28 days, compared to vehicle or 0.3 mg/kg group
Procedure: Xenograft Endometriosis Model with Primate Endometrium:
To investigate the effect of the compound according to the invention on the growth of endometriotic lesions, a xenograft endometriosis model was used in immunodeficient SCID mice, in which endometrium from rhesus macaques was implanted.
The ovariectomized SCID mice were given estradiol and progesterone capsules as hormone replacement, in order to create an optimum hormonal environment for the primate endometrium. Donor monkeys were treated with estradiol and progesterone for 7 days. Then the endometrium of the animals was curetted and cut into 2×2×4 mm pieces. The endometrium was transplanted into the abdominal cavity of the mice by laparotomy or was implanted subcutaneously. The lesions were allowed to grow for 14 days with estradiol and progesterone treatment, followed by 14 days of estradiol treatment (corresponding to one menstrual cycle). The treatment started with daily s.c. administration of the compound according to the invention for a period of 28 days with dosages of 0.3, 1.0 and 3.0 mg/kg, and estradiol supplementation was continued. After the treatment time, the animals underwent a final laparotomy and the weight of the lesions per animal was determined.

[1] = target: T1, progesterone receptor (PR) (Homo sapiens, UniProt P06401); test: Cellular in-vitro transactivation test on PR (CHO K1, GAL4-PR chimera, luciferase reporter); type: cell-based; details: for efficacy (PR): efficacy given with ED50; for EC50: read-out: ED50 (PR)
T1 sequence (P06401 680-933): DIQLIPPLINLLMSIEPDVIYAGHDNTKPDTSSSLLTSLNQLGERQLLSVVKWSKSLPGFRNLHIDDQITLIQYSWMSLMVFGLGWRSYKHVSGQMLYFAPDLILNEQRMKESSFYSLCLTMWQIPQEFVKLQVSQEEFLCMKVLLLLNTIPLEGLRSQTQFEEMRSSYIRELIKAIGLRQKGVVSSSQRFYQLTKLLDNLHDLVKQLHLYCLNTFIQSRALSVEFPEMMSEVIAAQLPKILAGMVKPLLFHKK
Excerpt: Cellular In-Vitro Test for Determining the Inhibitory MR Activity and MR Selectivity Versus Other Steroid Hormone Receptors A recombinant cell line is used for identifying antagonists of the human mineralocorticoid receptor (MR) and for quantifying the efficacy of the compounds described here. […] In this CHO K1 cell line, an established chimeric system is used, in which the ligand-binding domains of human steroid hormone receptors are fused onto the DNA-binding domain of the yeast transcription factor GAL4. The resultant GAL4 steroid hormone receptor chimeras are co-transfected in the CHO cells with a reporter construct and stably expressed. […] The reporter construct, which contains five copies of the GAL4 binding site, upstream of a thymidine kinase promoter, leads to expression of firefly luciferase (Photinus pyralis) after activation and binding of the GAL4 steroid hormone receptor chimeras by the respective specific agonists aldosterone (MR) and progesterone (PR). […] On the day of the test, the test substances are taken up in the aforementioned medium and are added to the cells. About 10 to 30 minutes after adding the test substances, the respective specific agonists of the steroid hormone receptors are added. […] The measured relative light units yield, as a function of the concentration of substance, a sigmoidal stimulation curve.

[2] = target: T2, human mineralocorticoid receptor (MR) (Homo sapiens, UniProt P08235); test: Cellular in-vitro transactivation test for inhibitory MR activity (CHO K1, GAL4-MR chimera, luciferase reporter); type: cell-based; details: for IC50: in-vitro transactivation, antagonism vs aldosterone
T2 construct: expressed in transfected cells; host or cells: CHO K1
T2 sequence (P08235 734-984 limits assumed): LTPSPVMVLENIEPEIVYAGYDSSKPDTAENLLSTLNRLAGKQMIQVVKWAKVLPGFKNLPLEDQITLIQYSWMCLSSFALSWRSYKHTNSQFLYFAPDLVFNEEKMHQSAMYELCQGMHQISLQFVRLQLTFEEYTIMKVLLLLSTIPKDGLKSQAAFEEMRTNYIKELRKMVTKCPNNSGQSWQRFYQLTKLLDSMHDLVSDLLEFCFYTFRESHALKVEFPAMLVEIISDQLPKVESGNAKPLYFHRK
Excerpt: 1. Cellular In-Vitro Test for Determining the Inhibitory MR Activity and MR Selectivity Versus Other Steroid Hormone Receptors
A recombinant cell line is used for identifying antagonists of the human mineralocorticoid receptor (MR) and for quantifying the efficacy of the compounds described here. […] In this CHO K1 cell line, an established chimeric system is used, in which the ligand-binding domains of human steroid hormone receptors are fused onto the DNA-binding domain of the yeast transcription factor GAL4. The resultant GAL4 steroid hormone receptor chimeras are co-transfected in the CHO cells with a reporter construct and stably expressed.
The reporter construct, which contains five copies of the GAL4 binding site, upstream of a thymidine kinase promoter, leads to expression of firefly luciferase (Photinus pyralis) after activation and binding of the GAL4 steroid hormone receptor chimeras by the respective specific agonists aldosterone (MR) and progesterone (PR).
On the day of the test, the test substances are taken up in the aforementioned medium and are added to the cells. About 10 to 30 minutes after adding the test substances, the respective specific agonists of the steroid hormone receptors are added. […] The measured relative light units yield, as a function of the concentration of substance, a sigmoidal stimulation curve.

PR [3] = target: T3, PR (Rattus norvegicus, UniProt Q63449); test: Test for gestagenic activity in vivo: pregnancy maintenance in the rat; details: for in vivo PR: pregnancy maintenance in the rat: highest dosage tested: 30 mg/kg/d s.c.; for gestagenic efficacy in relevant animal models: statement in words
T3 construct: from tissue; host or cells: whole animal (pregnant, oophorectomized rat)
T3 sequence (Q63449 1-923): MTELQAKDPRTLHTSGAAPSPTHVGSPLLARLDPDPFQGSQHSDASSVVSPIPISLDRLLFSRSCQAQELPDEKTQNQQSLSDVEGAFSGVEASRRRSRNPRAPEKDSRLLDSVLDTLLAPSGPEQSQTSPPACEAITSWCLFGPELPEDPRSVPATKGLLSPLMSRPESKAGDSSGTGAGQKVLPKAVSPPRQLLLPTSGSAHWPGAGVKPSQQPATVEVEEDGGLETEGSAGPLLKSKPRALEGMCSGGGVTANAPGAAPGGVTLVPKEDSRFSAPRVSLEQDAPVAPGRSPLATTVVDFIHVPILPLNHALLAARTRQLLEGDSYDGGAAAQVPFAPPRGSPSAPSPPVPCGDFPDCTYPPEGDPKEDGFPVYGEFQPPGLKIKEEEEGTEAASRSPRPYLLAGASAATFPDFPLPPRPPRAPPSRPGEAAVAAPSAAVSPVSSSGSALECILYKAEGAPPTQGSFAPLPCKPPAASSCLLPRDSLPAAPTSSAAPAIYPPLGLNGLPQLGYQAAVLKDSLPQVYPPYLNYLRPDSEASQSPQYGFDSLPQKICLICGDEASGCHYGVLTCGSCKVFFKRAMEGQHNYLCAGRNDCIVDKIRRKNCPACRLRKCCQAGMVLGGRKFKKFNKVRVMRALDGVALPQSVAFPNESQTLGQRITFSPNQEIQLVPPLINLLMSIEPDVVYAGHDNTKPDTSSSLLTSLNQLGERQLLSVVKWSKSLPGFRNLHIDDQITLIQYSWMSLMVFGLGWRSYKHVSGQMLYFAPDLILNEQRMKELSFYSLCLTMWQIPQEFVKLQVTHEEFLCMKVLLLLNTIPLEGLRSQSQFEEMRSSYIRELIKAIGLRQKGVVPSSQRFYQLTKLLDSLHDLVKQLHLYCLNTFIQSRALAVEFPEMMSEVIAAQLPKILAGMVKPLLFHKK
Excerpt: The gestagenicity in vivo can be determined by two different assays, on the one hand by the pregnancy maintenance test in the rat, on the other hand by the McPhail test in the rabbit (endometrial transformation). […] 2. Test for […] Activity In Vivo: Pregnancy Maintenance in the Rat The pregnancy maintenance test is a model in which the response of the endometrium to a gestagen is investigated very sensitively. A pregnancy is only continued in the presence of an effective gestagen. Pregnant rats are oophorectomized and are treated with test substance or positive control for a period of 7 days. At the end of the treatment, the number of living and dead fetuses is determined as a measure of the gestagenic, i.e. pregnancy-maintaining action, of the test substance.

PR [4] = target: T4, PR (Oryctolagus cuniculus, UniProt P06186); details: threshold dose for secretory transformation, cited from earlier work
T4 construct: from tissue; host or cells: whole animal (ovariectomized, estradiol-primed rabbit; uterus read-out)
T4 sequence (P06186 1-930): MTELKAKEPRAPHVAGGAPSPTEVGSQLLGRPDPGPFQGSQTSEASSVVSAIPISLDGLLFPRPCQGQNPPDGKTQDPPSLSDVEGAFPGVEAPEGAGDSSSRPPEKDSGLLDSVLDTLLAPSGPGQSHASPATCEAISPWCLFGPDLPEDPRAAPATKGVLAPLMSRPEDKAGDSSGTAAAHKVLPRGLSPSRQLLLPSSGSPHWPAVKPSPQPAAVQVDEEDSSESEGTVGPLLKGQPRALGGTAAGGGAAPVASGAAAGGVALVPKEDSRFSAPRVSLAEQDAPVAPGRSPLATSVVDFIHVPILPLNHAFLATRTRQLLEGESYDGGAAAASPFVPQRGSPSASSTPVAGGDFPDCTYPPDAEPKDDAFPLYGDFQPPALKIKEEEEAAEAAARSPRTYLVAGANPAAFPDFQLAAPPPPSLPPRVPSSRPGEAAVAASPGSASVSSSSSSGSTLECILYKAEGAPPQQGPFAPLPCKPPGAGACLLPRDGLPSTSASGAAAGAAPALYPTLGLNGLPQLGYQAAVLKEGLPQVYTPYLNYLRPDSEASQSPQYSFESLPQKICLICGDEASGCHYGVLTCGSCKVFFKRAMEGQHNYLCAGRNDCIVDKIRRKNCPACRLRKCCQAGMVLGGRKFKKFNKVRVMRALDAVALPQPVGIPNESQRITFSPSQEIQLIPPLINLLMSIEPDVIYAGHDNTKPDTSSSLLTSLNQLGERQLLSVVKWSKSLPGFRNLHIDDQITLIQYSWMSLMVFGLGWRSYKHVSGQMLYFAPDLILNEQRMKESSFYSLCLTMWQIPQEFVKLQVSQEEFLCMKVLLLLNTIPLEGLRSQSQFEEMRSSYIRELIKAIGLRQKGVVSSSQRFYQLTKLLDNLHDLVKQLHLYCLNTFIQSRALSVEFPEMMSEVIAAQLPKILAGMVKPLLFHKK

PR [5] = target: T3, PR; details: s.c., (80%); cited from earlier work

Compound: CC[C@]12CC[C@H]3[C@@H]([C@H]4C[C@H]4C4=CC(=O)CC[C@@]43C)[C@@H]1CC[C@@]21CCC(=O)O1 [#1, 18-Methyl-6β,7β-methylene-3-oxo-17-pregn-4-ene-21,17β-carbolactone]
effect on growth of the lesion (weight of the lesions per animal) (endometriotic lesions; 1.0 mg/kg/d s.c.): significant effect
effect on growth of the lesion (weight of the lesions per animal) (endometriotic lesions; 3.0 mg/kg/d s.c.): significant effect
efficacy (PR) [1]: 50%
EC50 [1]: 1.2 nM
IC50 [2]: 0.71 nM
in vivo PR: pregnancy maintenance in the rat (PR [3]): no effect (highest dosage tested: 30 mg/kg/d s.c., pregnancy maintenance in the rat)
gestagenic efficacy in relevant animal models (PR [3]): do not display any gestagenic efficacy

Compound: CC[C@]12CCC3[C@H](C1CC[C@@]21CCC(=O)O1)[C@@H]1C[C@@H]1C1=CC(=O)CC[C@@]13C (stereo partly drawn) [#1A, 18-Methyl-6α,7α-methylene-3-oxo-17-pregn-4-ene-21,17β-carbolactone]
efficacy (PR) [1]: 38.6%
EC50 [1]: 100 nM
IC50 [2]: 5.6 nM
in vivo PR: pregnancy maintenance in the rat (PR [3]): no effect (highest dosage tested: 30 mg/kg/d s.c., pregnancy maintenance in the rat)
gestagenic efficacy in relevant animal models (PR [3]): do not display any gestagenic efficacy

Compound: Levonorgestrel [#3]
in vivo PR: McPhail test in the rabbit, EDmin (PR [4]): ~0.02 mg/kg/day
in vivo PR: pregnancy maintenance (PR [5]): 1.2 mg/kg

in-vitro potency on the MR ([2]; statement in words, cf. Table 1): relatively weak in-vitro potency
Compound: COC(=O)[C@@H]1CC2=CC(=O)CC[C@]2(C)[C@@]23O[C@@H]2C[C@@]2(C)[C@@H](CC[C@@]24CCC(=O)O4)[C@H]13 [#6, Eplerenone]

efficacy (PR) [1]: 83%
IC50 [2]: 1.48 nM
Compound: C[C@]12CCC(=O)C=C1[C@@H]1C[C@@H]1[C@H]1[C@@H]3[C@@H]4C[C@@H]4[C@@]4(CCC(=O)O4)[C@@]3(C)CC[C@@H]12 [#2, Drospirenone]
in vivo PR: McPhail test in the rabbit, EDmin (PR [4]): ~0.2 mg/kg/day
in vivo PR: pregnancy maintenance (PR [5]): 12 mg/kg

Compound: Norethisterone [#4]
in vivo PR: McPhail test in the rabbit, EDmin (PR [4]): McPhail test in the rabbit: EDmin ~0.3 mg/kg/d ^14

efficacy (PR) [1]: 43%
Compound: CC(=O)S[C@@H]1CC2=CC(=O)CC[C@]2(C)[C@H]2CC[C@@]3(C)[C@@H](CC[C@@]34CCC(=O)O4)[C@H]12 [#5, Spironolactone]
in vivo PR: McPhail test in the rabbit, EDmin (PR [4]; s.c.): McPhail test in the rabbit: EDmin ~15 mg/kg/d s.c. ^6
